Drawing on patent US7981893B2, “Heteroaryl compounds, compositions thereof, and methods of treatment therewith” (Signal Pharmaceuticals, LLC, priority 2006, dated 2011), this text covers IC50 for six compounds.

As usually defined, the IC50 is the concentration needed to halve the response being measured. A higher IC50 goes with weaker potency.

Holding throughout (format): biochemical
Experiment [1] concerns the target T1, PKCθ (Homo sapiens, UniProt Q04759).
T1 construct: purchased Invitrogen
Put plainly: PKCθ IMAP Assay. As to conditions: IMAP fluorescence polarization screening assay, 35 μM ATP. The gist of the method:
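IMAP fluorescence polarization with 0.5 nM PKCθ, 100 nM FAM-AKRRRLSSLRA, 35 μM ATP, 2.5% DMSO, pH 7.6 HEPES with phosphatidyl serine/diacylglycerol. Compound pre-incubated with enzyme 45 min; reaction 60 min, then binding beads ≥30 min before FP read.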

The target of experiment [2] is T2, Syk (Homo sapiens, UniProt P43405).
T2 construct: purchased Carna Biosciences 08-176
Description: Syk HTRF Assay. The settings on record: HTRF screening assay. How it is done:
5 μl/well DMSO is added to Column 2 Wells A-O and 29.5 μl to well P2 of Greiner 384-well polypropylene plate. 20 μl/well DMSO is added to Columns 1 and 3-12.
25 mM compound solutions are prepared by the addition of 25 μl of 30 mM compound to Column 2 and 0.5 μl 30 mM reference control to well P2.
Serial dilution is then performed by the following steps: (i) compounds in Column 2 are mixed by pipetting 20 μl up and down 6×; (ii) 10 μl/well compounds in DMSO are transferred from one column to the next column for Columns 2-11; (iii) wells are mixed by pipetting 20 μl up and down 6×; (iv) tips washed 3×25 μl DMSO, 2×25 μl next DMSO.
The following buffers are prepared:
Dilution Buffer: 50 mM HEPES pH 7.6; 1 mM DTT; 10 mM MgCl2; 0.01% Triton X100; 0.01% BSA; 0.1 mM EDTA.
Enzyme Mix in Dilution Buffer: 8.621 ng/ml Syk (Carna Biosciences 08-176).
Start Mix in Dilution Buffer: 87.5 μM ATP; 80 nM Substrate Peptide (American Peptide Company 332722).
14.5 μl/well Enzyme Mix or Dilution Buffer (Background Controls) is added to Costar 384-well black plates.
Compound addition and mixture is performed by the following steps: (i) 0.5 μl/well DMSO/compounds in DMSO transferred from Greiner 384-well polypropylene plate to left half of assay plate containing 14.5 μl/well Enzyme Mix and Dilution Buffer; (ii) Mix by pipetting 10 μl up and down 4×; (iii) tips are washed 4×10 μl in DMSO, 2×20 μl in other DMSO; (iv) steps i-iii are repeated with transfer to right half of assay plate; (v) steps i-iv are repeated with each compound/assay plate until all plates are completed.
10 μl/well Start Mix is added and incubated at room temperature on shaker for 2 minutes (1 hour total reaction time).
Stop Solution in Dilution Buffer: 120 mM EDTA
Antibody Mix in Dilution Buffer: 4.86 μg/ml DyLight 647 Streptavidin (Pierce 21824); 1 μg/ml Lance Eu-Anti-Phosphotyrosine (PerkinElmer AD0069).
5 μl/well[…] is added and incubated at room temperature on shaker for 2 minutes.
[…] Antibody Mix is added and Incubated at room temperature on shaker for 2 minutes (4 hours to overnight total time).
Plates are read at 665 nm and 620 nm emission on Analyst GT protocol HTRF_SP_A or EnVision protocol Steve's TR-FRET.
On the technique in general: TR-FRET usually uses a lanthanide donor and a delayed reading to cut background.

The target in experiment [3] is T3, mTOR (Homo sapiens, UniProt P42345).
T3 construct: Dilute TOR fraction 1:14 in “Simple TOR Buffer”
Put plainly: mTOR HTR-FRET Assay. The settings on record: HTR-FRET screening assay, GST-p70S6 kinase fragment substrate. How it is done:
The following is an example of an assay that can be used to determine the mTOR inhibitory activity of a test compound. Reagents are prepared as follows:
“Simple TOR buffer” (used to dilute high glycerol TOR fraction): 10 mM Tris pH 7.4, 100 mM NaCl, 0.1% Tween-20, 1 mM DTT (from 1M stock frozen at −20° C. just prior to use). For convenience a large quantity of “Simple TOR buffer” w/o DTT can be stored at 4° C. It can be brought to room temperature and DTT added just prior to dilution of TOR fraction.
5×KB/5×Mn/5×ATP solution (used to dilute substrate GST-p70S6kin 81 a.a. just prior to use) (40 ml screen quantity shown):
Enzyme solution: Dilute TOR fraction 1:14 in “Simple TOR Buffer”. For current lot that is 640 μg/ml TOR fraction diluted 14× to yield 45.7 μg/ml TOR in buffer (i.e. 7.85 ml TOR pooled fraction+102.1 ml Simple TOR buffer=110 ml 14× diluted TOR fraction). Each Enzyme Lot must be QC'd prior to assay.
Substrate solution: This may be prepared just prior to assay if preferred. Dilute 5.3 mg/ml GST-p70S6kinase fragment stock to 3.5 μg/ml (97 nM) working stock in 5×KB/5×Mn/5×ATP solution (i.e. 26.41 μL (5.3 mg/ml) GST-p70S6+40 ml 5×KB/5×Mn/5×ATP=40 ml 3.5 μg/ml (97 nM)).
Assay Buffer (for dilution of Antibodies used in Antibody Detection Reagent):
Antibody Detection Reagent (this reagent should be made just prior to addition to Assay Plates):
Using PlateTrak program (Screen) or Matrix Pipettor (SAR), 19.5 μL of diluted TOR fraction is added to assay plate in all test, reference or positive control wells. 19.5 μL of “Simple TOR buffer” is added to all negative control wells. If treating multiple plates with the same compounds, can increase volume of enzyme to multiples of 19.5 μL in a tall 384 well polypropylene plate.
Using EP3, 0.5 μl of test, reference or control DMSO is added to each well with mixing. Plates are incubated for 30 minutes at room temperature.
Using PlateTrak program (Screen) or Matrix Pipettor (SAR) 5 μL of 5×KB/5×Mn/5×ATP/5× substrate solution is added to each well of the assay plate to start the reaction. The solutions are mixed well and incubated for 2 hours at room temperature.
Using PlateTrak program (Screen) or Matrix Pipettor (SAR) 5 μL of 60 mM EDTA is added to stop the reaction. The solutions are mixed well and allowed to sit for 15-20 minutes before the next step.
Using PlateTrak program (Screen) or Matrix Pipettor (SAR) 10 μl of Antibody Detection Reagent is added. The solutions are mixes well and incubated for 5 hours to O/N to allow antibodies to form complexes with phosphorylated substrate.
Plates are read on AnalystHT using protocol Multi-Method protocol.

T1 sequence (Q04759 whole entry): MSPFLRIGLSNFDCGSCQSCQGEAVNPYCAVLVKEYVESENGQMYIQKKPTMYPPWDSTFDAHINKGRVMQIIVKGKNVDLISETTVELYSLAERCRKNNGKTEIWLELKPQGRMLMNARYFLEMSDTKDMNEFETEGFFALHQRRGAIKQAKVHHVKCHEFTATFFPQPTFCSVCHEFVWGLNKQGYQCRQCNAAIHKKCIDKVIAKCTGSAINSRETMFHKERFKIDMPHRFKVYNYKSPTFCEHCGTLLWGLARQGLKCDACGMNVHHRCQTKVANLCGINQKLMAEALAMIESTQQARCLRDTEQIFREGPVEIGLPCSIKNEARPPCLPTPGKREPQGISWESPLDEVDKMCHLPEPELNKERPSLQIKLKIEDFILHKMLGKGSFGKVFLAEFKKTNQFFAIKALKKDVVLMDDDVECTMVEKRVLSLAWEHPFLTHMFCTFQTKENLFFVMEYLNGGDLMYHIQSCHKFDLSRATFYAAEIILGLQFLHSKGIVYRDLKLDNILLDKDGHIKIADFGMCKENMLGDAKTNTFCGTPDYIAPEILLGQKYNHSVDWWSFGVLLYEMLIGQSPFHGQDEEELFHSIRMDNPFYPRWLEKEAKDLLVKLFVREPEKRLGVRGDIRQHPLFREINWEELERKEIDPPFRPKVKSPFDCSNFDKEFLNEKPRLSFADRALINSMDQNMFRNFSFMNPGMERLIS

`CC(C)[C@@H](CO)n1c(=O)[nH]c2ncc(-c3ccccc3)nc21` [Compound 1, (S)-1-(1-hydroxy-3-methylbutan-2-yl)-6-phenyl-1H-imidazo[4,5-b]pyrazin-2(3H)-one]: the 50% inhibitory concentration (IC50) in experiment [1] and in experiment [2] was over 30 µM in each case.

Regarding `COc1ccc(C(C)C)cc1-c1cnc2[nH]c(=O)n([C@H](CO)C(C)C)c2n1` [Compound 8, (S)-1-(1-hydroxy-3-methylbutan-2-yl)-6-(5-isopropyl-2-methoxyphenyl)-1H-imidazo[4,5-b]pyrazin-2(3H)-one], the IC50 in experiment [1] and in experiment [2] was 0.1 to 5 µM each time.

Regarding `CC(C)[C@@H](CO)n1c(=O)[nH]c2ncc(-c3cccc4ncccc34)nc21` [Compound 11, (S)-1-(1-hydroxy-3-methylbutan-2-yl)-6-(quinolin-5-yl)-1H-imidazo[4,5-b]pyrazin-2(3H)-one], the values for the IC50 in experiment [1], in experiment [3] and in experiment [2] were 20.1 to 30 µM, over 30 µM and over 30 µM, respectively.

As for `COc1ccc(C(C)C)cc1-c1cnc2[nH]c(=O)n([C@@H](CO)C(C)C)c2n1` [Compound 13, (R)-1-(1-hydroxy-3-methylbutan-2-yl)-6-(5-isopropyl-2-methoxyphenyl)-1H-imidazo[4,5-b]pyrazin-2(3H)-one], the IC50 fell in the range of 10.1 to 20 µM in experiment [1] and 5.1 to 10 µM in experiment [2].

Regarding `COc1ccc(C(C)C)cc1-c1cnc2[nH]c(=O)n([C@H](C)C(C)C)c2n1` [Compound 28, (R)-6-(5-isopropyl-2-methoxyphenyl)-1-(3-methylbutan-2-yl)-1H-imidazo[4,5-b]pyrazin-2(3H)-one], the IC50 in experiment [1] and in experiment [2] was 0.1 to 5 µM in each case.

For `COc1ccc(C(C)C)cc1-c1cnc2[nH]c(=O)n([C@@H](C)C(C)C)c2n1` [Compound 30, (S)-6-(5-isopropyl-2-methoxyphenyl)-1-(3-methylbutan-2-yl)-1H-imidazo[4,5-b]pyrazin-2(3H)-one], the IC50 in experiment [1] was in the range of 20.1 to 30 µM; in experiment [2], 0.1 to 5 µM.
